The record followed here is patent US20250288645A1, “USE OF GsMTx4 AND GsMTx4 CONJUGATES TO IMPROVE RECOVERY FROM JOINT INJURY” (priority 2023, published 2025).

Each structure is given as a SMILES string.

The subject of test [1] is humeral head chondrocytes. Description: Explanted humeral head impact loading (2 mJ) after incubation with channel agonists. The format is cell-based, mouse. The note with it: 10 μM yoda1 or 5 nM GSK101, 15 minutes, 2 mJ load; for humeral head chondrocyte cell death following impact loading, female mice: relative to control media; for humeral head chondrocyte cell death following impact loading, male mice: relative to controls (DMSO 0.25%). Here is the method: Ethical approval was obtained from the appropriate institutional committee Humeri were harvested from wild-type 12-22 week old C57Bl/6 male and female mice. Each specimen was placed in calcium imaging buffer with 2 mM calcium chloride and subsequently incubated with 10 μM calcein-AM for 30 minutes at 37° C. To indicate intracellular esterase activity of living cells, each specimen was incubated with 10 μM yoda1, a Piezo1-specific agonist, 5 nM GSK101, a TRPV4-agonist, or control (DMSO 0.25%, n=7-10/group) in calcium imaging buffer for 15 minutes. Specimens were then incubated with 1.5 nM ethidium homodimer-1 for 3 minutes to indicate loss of plasma membrane integrity in dead cells. The specimen was then arranged in a custom 3-D printed holding device such that the chondrocytes within the apex of sphericity of the humeral head were facing the glass well of a dish to be imaged on an inverted confocal microscope. A baseline confocal image with overlay of 100 μm Z-stacks was obtained with 488 and 594 nm wavelengths to image live and dead cells, respectively. The humerus was then transferred to a custom impact loading apparatus. A 2 mJ load was applied to the lateral aspect of the proximal humerus, such that the convex apex of the humeral head cartilage was impacted against the glass microscope dish. A 2 mJ load was chosen based on preliminary work by Kotelsky to define mechanic-vulnerability of distal femur and proximal humerus articular chondrocytes in the custom loading apparatus. The samples were again incubated in ethidium homodimer-1. A post-injury confocal image with overlay of 100 μm Z-stacks was obtained. A custom MATLAB image processing algorithm was developed to quantify cell viability. The confocal images were processed as maximum intensity projections with threshold via Otsu's method. Then, watershed segmentation, distance transform, and centroid approximation algorithms were created and applied to segment and quantify individual cells based on intensity values. This facilitated the cell counting process, allowed quantification of the total cell area, and allowed adjustment of the region of interest between before- and after-impact micrographs.

For a further test, the system named is chondrocytes. Description: Cartilage pre-treated with Yoda1: chondrocyte vulnerability to mechanical injury. The test is classed as cell-based, murine. The note with it: cartilage pre-treated with Yoda1, versus vehicle-treated controls in contralateral limbs.

Consider `CC(C)C[C@H](NC(=O)c1cc2ccccc2s1)C(=O)N1CCN(C(=O)[C@H](CO)NS(=O)(=O)c2ccc(Cl)cc2Cl)CC1` [Gsk101], for which, in test [1], the “humeral head chondrocyte cell death following impact loading, female mice” value is given as “nor was incubation with Gsk101 chondroprotective” and the “humeral head chondrocyte cell death following impact loading, male mice” value is reported as “statistically significant decrease in humeral head chondrocyte cell death”.

Turning to `Clc1cccc(Cl)c1CSc1nnc(-c2cnccn2)s1` [Yoda1], in test [1], the “humeral head chondrocyte cell death following impact loading, female mice” value is on record as “not a significant increase in chondrocyte cell death” and the “humeral head chondrocyte cell death following impact loading, male mice” value is on record as “statistically significant increase in humeral head chondrocyte cell death”. Also, the “chondrocyte vulnerability to mechanical injury” value in the test on chondrocytes is “significantly higher chondrocyte vulnerability”.
